# Patent US20250154140A1 (Sunnybrook Research Institute, priority 2022, published 2025)
# Tests used:
# [1] = system: Baby Mouse Kidney (BMK) cells; assay: Actinomycin D / spontaneous cell death assay in BMK cells; format: cell-based; conditions: for tolerability by the cells: BMKwt cells; for effect on spontaneous cell death / effect on actinomycin D induced cell death: BMKwt; for effect on spontaneous cell death: 0 mM actinomycin D; for effect on actinomycin D induced cell death: 3.125, 6.25, 12.5 nM actinomycin D
# Description: Baby Mouse Kidney (BMK) cells were from (Mathew et al., 2008). BMK double knockout, SMAC-mCherry, and BAX^−/− cell lines were generated in house as described (Niu et al., 2017). BMK lines were grown in DMEM supplemented with 10% Fetal Bovine Serum and 1×MEM non-essential amino acids in a humidified incubator at 37° C. and 5% CO2.
# For cell death assays with actinomycin D, 3000 WT or DKO BMK cells were cultured in a 384 well plate and incubated overnight. The next morning, cells were treated with actinomycin D for 2 hours before the addition of BAX inhibitor. Actinomycin D and BAX inhibitor (where relevant) were then incubated for 24 hours before staining with Hoechst, AnnexinV-Alexa488, and TMRE for 30 minutes. Cells were imaged by confocal microscopy (Opera Phenix—PerkinElmer) and subsequently analyzed with Harmony (PerkinElmer) software. Cell death was scored by three criteria: the loss of TMRE signal, the appearance of AnnexinV-Alexa488 signal, and nuclear shrinkage visualized by Hoechst.
# BAK = target: T1, BAK (Mus musculus, UniProt O08734); assay: Permeabilization of isolated mitochondria, Smac-mCherry release (BIM activated BAK); format: biochemical; conditions: concentrations up to 60 uM
# T1 construct: endogenous in cells; host or cells: heavy membranes (mitochondria) of BAX-/- baby mouse kidney cells expressing Smac-mCherry
# T1 sequence (O08734 2-209 limits assumed): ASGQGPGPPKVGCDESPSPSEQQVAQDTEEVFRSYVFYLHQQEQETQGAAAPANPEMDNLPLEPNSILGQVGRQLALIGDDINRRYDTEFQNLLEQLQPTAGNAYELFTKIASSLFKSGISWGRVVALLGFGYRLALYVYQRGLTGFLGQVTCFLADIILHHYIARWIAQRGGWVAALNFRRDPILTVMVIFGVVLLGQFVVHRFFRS
# BAX = BAX (Homo sapiens, UniProt Q07812); assay: Permeabilization of isolated mitochondria, Smac-mCherry release (cBID activated BAX); format: biochemical, mouse; parameters: made in house; host or cells: Escherichia coli BL21-AI; conditions: concentrations up to 60 uM
# Chain of BAX (Q07812 whole entry): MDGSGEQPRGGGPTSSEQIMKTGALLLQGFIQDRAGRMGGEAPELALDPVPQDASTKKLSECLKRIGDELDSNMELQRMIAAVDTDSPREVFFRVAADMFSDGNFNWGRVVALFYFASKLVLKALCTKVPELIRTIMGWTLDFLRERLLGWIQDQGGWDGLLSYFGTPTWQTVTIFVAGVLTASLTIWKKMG
# Description: Animal breeding and handling was performed in accordance with local regulations after approval by the Animal Care Committee at Sunnybrook Research Institute, Toronto. The isolation of mouse-liver mitochondria, and use with Bcl-2 family proteins to measure activity and protein-protein interactions was previously described in detail (Pogmore et al., 2016). In mouse liver, BAX is either cytoplasmic or loosely bound to mitochondria. Therefore, BAX is not present in isolated mitochondria. For this reason, when mitochondria are isolated from liver from BAK−/− mice they contain neither BAX or BAK. […] The supernatant was discarded, and the remaining pellet is resuspended in regeneration buffer (300 mM Trehalose, 10 mM HEPES-KOH pH 7.7, 80 mM KCl, 1 mM EGTA, 1 mM EDTA, 0.1% BSA, 5 mM succinate, 2 mM ATP, 10 μM phosphocreatine, and 10 μg/mL creatine kinase) at a protein concentration of 1 mg/mL, (determined by Bradford assay) for immediate use as the source of membranes for FRET measurements. […]
# For BAX^−/−/BAK^−/−BMK SMAC-mCherry mitochondria, 2 nM cBID and 20 nM BAX was used to fully permeabilize the mitochondria. […] The percentage of SMAC-mCherry release was determined by fluorometric analysis of the supernatant and pellet fractions by measuring the fluorescence intensity (F) of mCherry (excitation 580, emission 610 in a Tecan M1000).
Compound,"spontaneous cell death in culture ([1]; BMK-wt, 0 nM actinomycin D, from ~30% without compound)",tolerability by the cells [1],effect on spontaneous cell death [1],effect on actinomycin D induced cell death [1],inhibition of BAK mediated permeabilization of mitochondria (BAK),inhibition of BAX mediated permeabilization of mitochondria (BAX),"inhibition of actinomycin D mediated cell death in cells expressing either BAX or BAK ([1]; 1.25 or 2.5 uM compound, actinomycin D 25 nM (wild-type), 100 nM (knock-out))"
"COc1cc2ncnc(Nc3ccc(F)c(Cl)c3)c2cc1NC(=O)/C=C/CN1CCCCC1 [Dacomitinib, reference compound]",< 10%,well-tolerated,reduced the amount of spontaneous cell death,reduced cell death,equally effective inhibitors,equally effective inhibitors,
"COc1cc2ccnc(Nc3ccc(F)c(Cl)c3)c2cc1NC(=O)CCCN1CCCCC1 [Compound I-1, N-(1-((3-chloro-4-fluorophenyl)amino)-6-methoxyisoquinolin-7-yl)-4-(piperidin-1-yl)butanamide]",,well-tolerated,reduced the amount of spontaneous cell death,reduced cell death,equally effective inhibitors,equally effective inhibitors,most effective inhibitor
